Assay results published in patent publication EP4293019A1, “4-SUBSTITUTED (1H-BENZO[D]IMIDAZOL-2-YL)-1H-PYRAZOLES AS BUB1 INHIBITORS USEFUL FOR TREATING CANCERS” (Netherlands Translational Research Center Holding B.V., priority 2022, dated 2023).

Experiments:
U2OS cells = assay: Cellular proliferation assay (SRB proliferation assay); assay type: cell-based; settings: Homo sapiens, 72 h treatment, SRB staining, N=2, n=3
Experimental: This protocol describes how the Cellular Proliferation Assay was performed to determine pIC50 values of compounds of general formula (I) against U2OS cells.
U2OS (human osteosarcoma) cells were purchased at ATCC and were tested on regular basis for mycoplasma contamination. Cultures were discarded after 2-3 months of use. Cells were cultured at 37°C under 7% CO2 in DMEM (Sigma Aldrich, D6546) supplemented with GlutaMAX (2 mM, ThermoFisher), 10% (v/v) heat-inactivated newborn calf serum (Seradigm), penicillin and streptomycin (200 µg/mL each, Duchefa) (complete medium). Medium was refreshed every 2-3 days and cells were passaged by trypsinization twice a week at 80-90% confluence. Cell viability was assessed by Trypan Blue exclusion and cell quantification using a TC20™ Automated Cell Counter (Bio-Rad).
Assays were performed in 96-well plates (Greiner, Cellstar, 655180) by seeding (day 0), treatment (day 1) and subsequent incubation for 72 h. Cells were fixed, stained and staining was subsequently dissolved after which absorbance was measured. Each assay included the following controls: (i) a background control (to which no cells were added), (ii) t0 controls (separate assay plate in which cells were fixed on day 1, used as 0% proliferation), (iii) nontreated controls (present in each assay plate, treated with vehicle and used as 100% proliferation). Cells were treated with different concentrations of indicated inhibitor. All inhibitors were tested in two separate assays and all inhibitor concentrations were tested in triplicate per assay (N=2, n=3).
For each assay, U2OS cells from 10 cm dishes were seeded into 96-well plates (3,000 cells/well) and subsequently incubated overnight to allow for cell adherence. Stocks of inhibitor and vehicle (all in DMSO) were diluted in complete medium to obtain 2x working solutions (1% DMSO). Cell medium was replaced by fresh complete medium (50 µL), treatment was started by addition of the 2x working solutions (50 µL) and plates were incubated at 37°C for 72 h. Cell medium was replaced by fresh serum free medium (100 µL) and cells were fixed by addition of 30 µL 50% (w/v) aq. trichloroacetic acid after which the plates were incubated at 4°C for 60 min. Wells were emptied by shaking the plates upside down after which wells were washed three times with demineralized water and air-dried overnight. To each well, 60 µL of SRB solution (0.4% (w/v) in 1% aq. acetic acid) was added and plates were incubated for 30 min. The excess SRB was removed and the wells were washed three times with 1% aq. acetic acid and air-dried overnight. Bound SRB was redissolved by addition of 150 µL 10 mM TRIS (free-base) and absorbance was measured at 540 nm on a CLARIOstar plate reader. Data was normalized between t0 and nontreated controls and plotted using GraphPad Prism 8.0 using "Nonlinear regression (curve fit)" and "log(inhibitor) vs. normalized response - Variable slope" to determine pIC50 values.
Inhibition is indicated as pIC50 ("-" = not measured). Compounds having an activity designated as "A" provided an pIC50 ≥ 6.0 (IC50 ≤1 µM); compounds having an activity designated as "B" provided an 5.3 ≤ pIC50 < 6.0 (1 µM<IC50 ≤ 5 µM); compounds having an activity designated as "C" provided an 5.0 ≤ pIC50 < 5.3 (5 µM < IC50 ≤ 10 µM); compounds having an activity designated as "D" provided an 5.0 < pIC50 ≤ 4.7 (10 µM < IC50 ≤ 20 µM); and compounds having an activity designated as "E" provided an pIC50 < 4.7 (IC50 >20 µM).

hBUB1 = target: T1, hBUB1 (Homo sapiens, UniProt O43683); assay: hBUB1 kinase activity assay (biochemical fluorescence polarization assay, IMAP); settings: BUB1/BUB3 3.26 nM, ATP 15 µM, BUB1/BUB3 substrate 75 nM; N=2, n=2; read-out: hBUB1 pIC50 (converted)
T1 construct: purchased Carna Biosciences 05-187
T1 sequence (O43683 whole entry): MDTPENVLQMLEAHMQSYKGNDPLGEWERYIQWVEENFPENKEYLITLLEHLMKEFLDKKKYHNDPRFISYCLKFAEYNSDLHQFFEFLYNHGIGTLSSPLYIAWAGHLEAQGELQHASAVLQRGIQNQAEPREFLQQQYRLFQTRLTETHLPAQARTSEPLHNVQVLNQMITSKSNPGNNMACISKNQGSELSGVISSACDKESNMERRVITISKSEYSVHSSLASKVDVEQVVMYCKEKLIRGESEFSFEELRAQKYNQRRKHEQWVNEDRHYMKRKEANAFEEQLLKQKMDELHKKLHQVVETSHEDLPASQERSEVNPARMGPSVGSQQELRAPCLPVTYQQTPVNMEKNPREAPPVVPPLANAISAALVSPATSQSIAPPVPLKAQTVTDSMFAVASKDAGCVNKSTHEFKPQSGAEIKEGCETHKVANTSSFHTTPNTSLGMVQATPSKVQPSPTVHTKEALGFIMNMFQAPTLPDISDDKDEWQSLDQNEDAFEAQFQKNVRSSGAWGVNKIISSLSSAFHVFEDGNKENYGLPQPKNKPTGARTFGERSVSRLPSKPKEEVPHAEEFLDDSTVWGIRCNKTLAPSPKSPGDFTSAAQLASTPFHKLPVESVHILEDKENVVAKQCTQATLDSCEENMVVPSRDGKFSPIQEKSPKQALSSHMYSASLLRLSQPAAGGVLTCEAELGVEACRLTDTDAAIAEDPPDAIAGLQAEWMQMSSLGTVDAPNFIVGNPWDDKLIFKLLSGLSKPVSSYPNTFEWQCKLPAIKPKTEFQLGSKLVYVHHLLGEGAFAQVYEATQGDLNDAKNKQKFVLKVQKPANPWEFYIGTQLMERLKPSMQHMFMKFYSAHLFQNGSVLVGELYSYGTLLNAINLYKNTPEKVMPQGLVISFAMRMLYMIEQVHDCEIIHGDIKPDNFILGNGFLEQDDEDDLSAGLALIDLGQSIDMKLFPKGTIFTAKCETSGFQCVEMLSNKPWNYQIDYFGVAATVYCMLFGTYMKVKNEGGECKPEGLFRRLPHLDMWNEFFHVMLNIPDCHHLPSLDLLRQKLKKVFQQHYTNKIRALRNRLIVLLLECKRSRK
T1 sequence (O43684 whole entry partner): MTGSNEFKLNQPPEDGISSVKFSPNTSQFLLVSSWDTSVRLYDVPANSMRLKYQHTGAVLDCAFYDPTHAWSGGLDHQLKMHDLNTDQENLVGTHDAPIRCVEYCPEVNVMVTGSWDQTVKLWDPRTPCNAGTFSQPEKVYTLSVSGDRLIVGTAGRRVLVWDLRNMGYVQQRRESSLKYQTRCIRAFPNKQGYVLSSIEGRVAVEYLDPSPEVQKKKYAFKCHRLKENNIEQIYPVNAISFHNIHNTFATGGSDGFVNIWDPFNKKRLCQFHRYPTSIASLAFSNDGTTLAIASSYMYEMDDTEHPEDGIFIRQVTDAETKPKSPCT
Experimental: This protocol describes how the Kinase Activity Assay was performed to determine pIC50 values of compounds of general formula (I) against hBUB1.
Assays were performed in 384-well plates (Greiner, black, flat bottom, 781076) by sequential addition (final concentrations are indicated) of inhibitor (5 µL, 0.3 nM - 1 µM or 3 nM - 10 µM), BUB1/BUB3 (5 µL, 3.26 nM, Carna Biosciences (05-187), lot: 15CBS-0644 D), ATP (5 µL, 15 µM) and BUB1/BUB3 substrate (5 µL, 75 nM, Carna Biosciences (05-187MSSU)), all as 4x working solutions. The final concentration of DMSO was 1%. Assay reactions were stopped by addition of IMAP progressive binding reagent (20 µL, 1200x diluted, Molecular Devices (R8155), lot: 3117896). Each assay included the following controls: (i) a background control (treated with vehicle instead of inhibitor and BUB1/BUB3 substrate), (ii) MIN controls (treated with 5 µM BAY1816032 (MedChem Express) as inhibitor, used as 0% BUB1 activity) and (iii) MAX controls (treated with vehicle instead of inhibitor, used as 100% BUB1 activity). All inhibitors were tested in two separate assays and all inhibitor concentrations were tested in duplicate per assay (N=2, n=2).
For each assay, assay buffer (AB) was freshly prepared and consisted of 20 mM HEPES (prepared by diluting 1 M HEPES, pH 7.2), 5 mM MgCl2, 0.01% Tween-20 and 1 mM DTT. Stocks of inhibitors (in DMSO) were diluted in AB to obtain 4x working solutions (4% DMSO) and 5 µL was added to the assay plate. BUB1/BUB3 (3.26 µM (486 µg/mL) in storage buffer) was diluted in AB to obtain 13.0 nM of which 5 µL was added to all wells of the assay plate. The assay plate was centrifuged (1 min, 200 g) and incubated at RT for 30 min. ATP (4 mM in MilliQ) was diluted in AB to obtain 60 µM of which 5 µL was added to each well. BUB1/BUB3 substrate (1 mM) was diluted in 20 mM HEPES (prepared by diluting 1 M HEPES (pH 7.2) in MilliQ) to obtain 80 µM (this solution was freshly prepared every assay) and further diluted in AB to obtain 300 nM after which 5 µL was added to each well of the assay plate except for background control wells. The assay plate was centrifuged (1 min, 200 g) and incubated at RT in the dark for 180 min. IMAP progressive binding buffer A (5x) and IMAP progressive binding buffer B (5x) were mixed in a ratio to obtain 30% buffer A and 70% buffer B, which was subsequently diluted 5x in MilliQ. IMAP progressive binding reagent was diluted 600x in aforementioned mixture of buffer A and B (to obtain a 2x working solution) of which 20 µL was added to each well of the assay plate. The assay plate was centrifuged (1 min, 200 g) and incubated at RT in the dark for 90 min. Fluorescence polarization was measured on a CLARIOstar plate reader using the following settings: (i) optic settings → excitation = F: 482-16, dichroic = F: LP 504, emission = F: 530-40, (ii) optic = top optic, (iii) speed/precision = maximum precision, (iv) focus adjustment was performed for every assay and (v) gain adjustment was done by setting the target mP value to 35 mP for one of the MIN control wells. Data was normalized between MIN and MAX controls and data was plotted using GraphPad Prism 8.0 using "Nonlinear regression (curve fit)" and "log(inhibitor) vs. normalized response - Variable slope" to determine pIC50 values.
Inhibition is indicated as pIC50 ("-" = not measured). Compounds having an activity designated as "A" provided an pIC50 ≥ 7.0 (IC50 ≤100 nM); compounds having an activity designated as "B" provided an 6.3 ≤ pIC50 < 7.0 (100 nM<IC50 ≤ 500 nM); compounds having an activity designated as "C" provided an 6.0 ≤ pIC50 < 6.3 (500 nM < IC50 ≤ 1 µM); compounds having an activity designated as "D" provided an 6.0 < pIC50 ≤ 5.0 (1 µM < IC50 ≤ 10 µM); and compounds having an activity designated as "E" provided an pIC50 < 5.0 (IC50 >10 µM).

Question: Which results are given for `C#Cc1cccc(-c2ncc(OC)c(Nc3c[nH]nc3-c3nc4cc(CN5CCOCC5)ccc4[nH]3)n2)c1F` [Compound 56, 2-(3-Ethynyl-2-fluorophenyl)-5-methoxy-N-(3-(5-(morpholinomethyl)-1H-benzo[d]imidazol-2-yl)-1H-pyrazol-4-yl)pyrimidin-4-amine]?
Answer: IC50 (U2OS cells): ≤ 1 µM; IC50 (hBUB1): ≤ 0.1 µM

Question: For `COc1cnc(-c2ccc(F)cc2)nc1Nc1c[nH]nc1-c1nc2cc(CN3CCOCC3)ccc2[nH]1` [Compound 61, 2-(4-Fluorophenyl)-5-methoxy-N-(3-(5-(morpholinomethyl)-1H-benzo[d]imidazol-2-yl)-1H-pyrazol-4-yl)pyrimidin-4-amine], which IC50 (U2OS cells) is on record?
Answer: ≤ 1 µM

Question: What about the IC50 (hBUB1) of the same molecule?
Answer: 0.1 to 0.501 µM

Question: `COc1cnc(-c2cccc(Cl)c2F)nc1Nc1c[nH]nc1-c1nc2cc(CN3CCOCC3)ccc2[nH]1` [Compound 55, 2-(3-Chloro-2-fluorophenyl)-5-methoxy-N-(3-(5-(morpholinomethyl)-1H-benzo[d]imidazol-2-yl)-1H-pyrazol-4-yl)pyrimidin-4-amine] was tested. Which IC50 (U2OS cells) did it give?
Answer: ≤ 1 µM

Question: What about the IC50 (hBUB1) of the same molecule?
Answer: ≤ 0.1 µM

Question: `Fc1ccc(Cl)cc1-c1nccc(Nc2c[nH]nc2-c2nc3cc(CN4CCOCC4)ccc3[nH]2)n1` [Compound 47, 2-(5-Chloro-2-fluorophenyl)-N-(3-(5-(morpholinomethyl)-1H-benzo[d]imidazol-2-yl)-1H-pyrazol-4-yl)pyrimidin-4-amine] was tested. Which IC50 (U2OS cells) did it give?
Answer: 1 to 5.01 µM

Question: What about the IC50 (hBUB1) of the same molecule?
Answer: ≤ 0.1 µM

Question: `COc1cnc(-c2cccc(C(F)(F)F)c2)nc1Nc1c[nH]nc1-c1nc2cc(CN3CCOCC3)ccc2[nH]1` [Compound 53, 5-Methoxy-N-(3-(5-(morpholinomethyl)-1H-benzo[d]imidazol-2-yl)-1H-pyrazol-4-yl)-2-(3-(trifluoromethyl)phenyl)pyrimidin-4-amine] was tested. Which IC50 (U2OS cells) did it give?
Answer: ≤ 1 µM

Question: And the IC50 (hBUB1)?
Answer: 0.1 to 0.501 µM

Question: With `Fc1c(Cl)cccc1-c1nccc(Nc2c[nH]nc2-c2nc3cc(CN4CCOCC4)ccc3[nH]2)n1` [Compound 45, 2-(3-Chloro-2-fluorophenyl)-N-(3-(5-(morpholinomethyl)-1H-benzo[d]imidazol-2-yl)-1H-pyrazol-4-yl)pyrimidin-4-amine] as the molecule, how does the IC50 (U2OS cells) read?
Answer: 1 to 5.01 µM

Question: What about the IC50 (hBUB1) of the same molecule?
Answer: ≤ 0.1 µM

Question: `c1ccc(COc2nccc(Nc3c[nH]nc3-c3nc4cc(CN5CCOCC5)ccc4[nH]3)n2)cc1` [Compound 18, 2-(benzyloxy)-N-(3-(5-(morpholinomethyl)-1H-benzo[d]imidazol-2-yl)-1H-pyrazol-4-yl)pyrimidin-4-amine] was tested. Which IC50 (U2OS cells) did it give?
Answer: 1 to 5.01 µM

Question: What about the IC50 (hBUB1) of the same molecule?
Answer: 0.1 to 0.501 µM

Question: With `FC(F)(F)c1cccc(-c2nccc(Nc3c[nH]nc3-c3nc4cc(CN5CCOCC5)ccc4[nH]3)n2)c1` [Compound 43, N-(3-(5-(Morpholinomethyl)-1H-benzo[d]imidazol-2-yl)-1H-pyrazol-4-yl)-2-(3-(trifluoromethyl)phenyl)pyrimidin-4-amine] as the molecule, how does the IC50 (U2OS cells) read?
Answer: 1 to 5.01 µM

Question: What about the IC50 (hBUB1) of the same molecule?
Answer: 0.501 to 1 µM

Question: With `C#Cc1ccc(F)c(-c2ncc(OC)c(Nc3c[nH]nc3-c3nc4cc(CN5CCOCC5)ccc4[nH]3)n2)c1F` [Compound 60, 2-(3-Ethynyl-2,6-difluorophenyl)-5-methoxy-N-(3-(5-(morpholinomethyl)-1H-benzo[d]imidazol-2-yl)-1H-pyrazol-4-yl)pyrimidin-4-amine] as the molecule, how does the IC50 (U2OS cells) read?
Answer: ≤ 1 µM

Question: What about the IC50 (hBUB1) of the same molecule?
Answer: ≤ 0.1 µM

Question: Which IC50 (U2OS cells) does the source give for `COc1cnc(-c2cccc(C#N)c2)nc1Nc1c[nH]nc1-c1nc2cc(CN3CCOCC3)ccc2[nH]1` [Compound 54, 3-(5-Methoxy-4-((3-(5-(morpholinomethyl)-1H-benzo[d]imidazol-2-yl)-1H-pyrazol-4-yl)amino)pyrimidin-2-yl)benzonitrile] here?
Answer: 10 to 20 µM

Question: What about the IC50 (hBUB1) of the same molecule?
Answer: ≤ 0.1 µM

Question: What does the source list for `C#Cc1ccc(F)c(-c2ncc(OC)c(Nc3c[nH]nc3-c3nc4cc(CN5CCOCC5)ccc4[nH]3)n2)c1` [Compound 58, 2-(5-Ethynyl-2-fluorophenyl)-5-methoxy-N-(3-(5-(morpholinomethyl)-1H-benzo[d]imidazol-2-yl)-1H-pyrazol-4-yl)pyrimidin-4-amine]?
Answer: IC50 (U2OS cells): ≤ 1 µM; IC50 (hBUB1): ≤ 0.1 µM

Question: How did the IC50 (U2OS cells) turn out when `C#Cc1cccc(-c2nccc(Nc3c[nH]nc3-c3nc4cc(CN5CCOCC5)ccc4[nH]3)n2)c1F` [Compound 46, 2-(3-Ethynyl-2-fluorophenyl)-N-(3-(5-(morpholinomethyl)-1H-benzo[d]imidazol-2-yl)-1H-pyrazol-4-yl)pyrimidin-4-amine] was run?
Answer: ≤ 1 µM

Question: And the IC50 (hBUB1)?
Answer: ≤ 0.1 µM

Question: What does the source list for `N#Cc1cccc(-c2nccc(Nc3c[nH]nc3-c3nc4cc(CN5CCOCC5)ccc4[nH]3)n2)c1` [Compound 44, 3-(4-((3-(5-(Morpholinomethyl)-1H-benzo[d]imidazol-2-yl)-1H-pyrazol-4-yl)amino)pyrimidin-2-yl)benzonitrile]?
Answer: IC50 (U2OS cells): 1 to 5.01 µM; IC50 (hBUB1): 0.501 to 1 µM
